Reference: a melting point compilation (Tetko et al.; mined from patent text by program, amines drawn as free bases though some values may be those of a salt)

Compound	melting point [°C]
Cc1ccc(NC(=O)C(C)(C)C)c(-c2cncc(Cl)n2)c1	80 to 83
CCCCCCCCCCCCCCCCCC(=O)OCCN1C(C)(C)CCCC1(C)C	30
Cc1c(Nc2c(C#N)cnc3sc(C(=O)N4CCCC4)cc23)ccc2[nH]ccc12	256
CCCn1c(=O)c2[nH]c(/C=C/c3ccc(C)c(C)c3)nc2n(CCC)c1=O	253 to 254
C[C@@H]1S[C@@H](C(=O)Nc2ccc(CN3CCCC3)cc2)Cc2cc3c(cc2C1=O)OCO3	186 to 188
CN1CCC(Oc2ccccc2[N+](=O)[O-])(c2ccccc2)CC1	80 to 82
O=C(CBr)c1cccn1S(=O)(=O)c1ccccc1	89 to 91
Cc1ccnc(Nc2nc(-c3c[nH]nc3C(O)c3ccccc3)cs2)n1 (configuration not stated)	250
COC(=O)c1ccc(COC(=O)Nc2ccc(-c3ccccc3)n(CC(=O)NC(Cc3ccccc3)C(=O)C(F)(F)F)c2=O)cc1 (configuration not stated)	186 to 189
CCCCCNC1=CC(=O)C(=O)c2ccccc21	> 215
CCOC(=O)c1cn(-c2nc(F)c(F)c(NC(C)(C)C)c2F)c2c(Cl)c(F)c(F)cc2c1=O	145 to 146
Cc1ccc(-c2[nH]c(=O)n(C3CCN(Cc4ccccc4C)CC3)c2C)cc1	262
COC(=O)c1ccc(OCCC2CC(=O)N(c3ccc(Cl)cc3)C2)cc1 (configuration not stated)	126 to 128
COc1ccc(Cn2nc3oc(=O)cc(C)c3c2C)cc1	169 to 172
CC(=O)N(C(C)=O)n1c(=O)[nH]c2ccccc2c1=O	210
CCn1cc(C(=O)O)c(=O)cc1-c1ccc(O)cc1	243 to 245
COc1ccccc1C1(O)OC(=O)C(c2ccc3c(c2)OCO3)=C1Cc1ccc2nsnc2c1 (configuration not stated)	172
CCCn1nc(-c2cnc3[nH]cc(C(=O)N[C@H](C)C(=O)N4CC(C#N)C4)c3n2)c2ccc(Cl)cc21	219 to 221
COc1ccc(C(=O)Nc2c(Cl)cncc2Cl)c2c1OCCCCO2	115 to 117
CCOC(=O)C1(c2ccccc2)CCN(c2ncccn2)CC1	119 to 120
CCCCC(CC)C(=O)C=P(c1ccccc1)(c1ccccc1)c1ccccc1 (configuration not stated)	106 to 108
Oc1ccc(OCC(O)CNCCNc2cccc3[nH]ncc23)cc1 (configuration not stated)	151 to 153
CN(C)C(=O)CC(=O)c1ccc(C(=O)CC(=O)C(C)(C)C)cc1	159 to 160
COc1ccc2c(c1)C(=O)c1c-2cnc2ccccc12	195 to 196

Compound	melting point [°C]
CC1(C)CCc2c(N3CCCC3)nc3sc4c(NCc5ccco5)ncnc4c3c2C1	201 to 202
COc1cc2c(Nc3ccc(Cl)cc3F)ncnc2cc1OCCCNC(=O)OCC(C)C	136 to 137
CN1CCN(CC2COCc3nc4c(N)nc5ccccc5c4n32)CC1 (configuration not stated)	187 to 190
CCOC(=O)NN(CCO)c1ccc(-c2ccc(Cl)cc2)nn1	152 to 154
CN1CCC(c2ccc(Cl)c(Cl)c2)C(CO)C1 (configuration not stated)	109 to 111
Cn1nnc(-c2ccc(C=O)cc2)n1	137 to 139
COC(=O)c1cnoc1-c1ccc(Cl)cc1Cl	83 to 84
COc1ccc(CN2C(=O)[C@@H](NC(=O)Cc3ccccc3)[C@H]2CN=[N+]=[N-])c(OC)c1 (relative stereo)	110 to 111
CC1CC(N)=NN1c1ccccc1 (configuration not stated)	104 to 106
Cc1nc2c(OCCCc3ccccc3)cccn2c1CC#N	143 to 145
Nc1cc(-c2ccccc2)ccc1Cl	91 to 92.5
O=CCC1Cc2ccc(F)cc2C1=O (racemic)	62
C#CC(C)(C)OC(C)Oc1ccc(NC(=O)N(C)C)cc1Cl (configuration not stated)	99 to 101
Cn1c(C(F)(F)F)cc(=O)n(-c2c(F)cc(Cl)c3nc(C(C)(C)C)oc23)c1=O	68 to 70
CC(=O)c1c(C)oc(C)c1C(C)=O	75 to 77
O=C(NC(=O)c1cccnc1)NC1CCN(Cc2ccc3ncccc3c2)CC1	196 to 198
Cc1ccc(NS(=O)(=O)c2ccccc2)cc1NC(=O)Cc1ccc(C#N)cc1	120 to 122
Cc1c(CO)nc2c(OCc3ccccc3)cccn12	172 to 175
CC1(C)CC(=O)C(C(=O)c2ccc(S(C)(=O)=O)cc2[N+](=O)[O-])C(=O)C1	156 to 158
CN1CCC23c4c5ccc(OCCCN)c4OC2C(O)C=CC3C1C5 (configuration not stated)	132 to 134
CCCCCCNc1ccc([N+](=O)[O-])cc1C(=O)O	161 to 163
O=C(C1CC=CCC1)C1CCC2C(C=CC3=CCCc4c3n2c2ccncc42)C1 (configuration not stated)	156 to 158
Cc1ccc2c(C=O)c3ccccc3c(C=O)c2c1	150 to 152
COC(=O)c1ccccc1S(=O)(=O)NC(=O)Nc1nc(C)c2cc(C)oc2n1	197 to 198

Compound	melting point [°C]
COc1ccc(-c2cc3ccc(C#N)cc3o2)cc1	141 to 142
CC1(C(=O)N2C[C@H](Sc3ccc(OCC(F)(F)F)cc3C(F)(F)F)C[C@H]2C(=O)NC2(C#N)CC2)CC1	66 to 76
COc1ccc(C#Cc2ccccc2)c(CC(C)=O)c1	60 to 62
COc1cc(C(C)C)ccc1C1(Br)C(=O)c2cccc(NC(C)=O)c2C1=O (configuration not stated)	143 to 145
NC(c1ccco1)P(O)O (configuration not stated)	221
S=C(NCc1ccccc1)Nc1ccc(NC(=S)NCc2ccccc2)cc1	198
Cc1cn(COCCO)c(=O)[nH]c1=O	138 to 140
Cc1cc(C2CN(C(=O)Nc3ccc(OC(F)(F)F)cc3)N=C2c2ccccc2)on1 (configuration not stated)	195 to 197
CC(C)(C)c1ccc(O)c(CNS(=O)(=O)O)c1	260 to 262
COc1cc(Cn2c(-c3ccc(O)cc3)c(C)c3cc(O)ccc32)ccc1OCCN1CCCCCC1	142 to 146
CCOC(=O)CS(=O)(=O)CCCC=C1SC=CS1	79.5 to 81
CCOC(=O)c1ccc(-c2ccc(F)cc2)cc1-c1ccc(OC)c(OC)c1	127
Cc1cc(NC(=O)c2c(Cl)cccc2Cl)c2nccc(Cl)c2c1C	190 to 193
O=S1(=O)Nc2cccc3c2N1CCC3	96
CCN(c1ccc(SC)cc1C#N)S(=O)(=O)c1ccc(C)cc1	136 to 137
CS(=O)(=O)Nc1cncc(C(=NCCc2ccccc2Cl)NC#N)c1	205
Cc1cc(Br)cnc1CCCCNC1=NS(=O)(=O)c2ccc(Cl)cc21	231 to 235
N#Cc1cc(C#N)cc(Oc2cccc(Oc3cc(C#N)cc(C#N)c3)c2)c1	212 to 213
CCOC(=O)Cc1ccc(-c2nc(COc3ccc(COc4nn(-c5ccccc5)cc4/C=C/c4cn(CC)cn4)cc3OC)c(C)o2)cc1	140 to 141
Cn1c(=O)c(-c2c(Cl)cccc2Cl)cc2cnc(NCc3cccnc3)nc21	224 to 226
COc1c2c(cc3ccc(OC(C)=O)cc13)-c1ccc(OC(C)=O)cc1CO2	165 to 167
COc1cnc2c(-c3cccc(C(F)(F)F)c3)ccc(C)c2n1	141 to 142
O=C1COc2ccc(C3=Nc4ccccc4SC3c3ccccc3)cc2N1 (configuration not stated)	215 to 217
c1ccc2c(-c3nc(NC4CCCCC4)c4ccccc4n3)nccc2c1	275 to 277
